Data on 13 compounds can be found in US9539221B2, “Method of treating airway diseases with β-adrenergic inverse agonists” (EGB ADVISORS, LLC, priority 2003, dated 2017).

Data set [1] has as its system asthmatic mice. The experiment in a line: Airway resistance (Raw) response to methacholine provocation in murine model of asthma (forced oscillation). Format: in vivo, Balb/cJ mice. As to the method: Balb/cJ mice aged 6 weeks (Jackson Animal Laboratory, Bar Harbor, Me.) were housed under specific pathogen-free conditions and fed a chicken ovalbumin-free diet. The Animal Research Ethics Boards of both the University of Houston and the Baylor College of Medicine approved all experiments reported here. […] Mice were sensitized with subcutaneous injection of 25 μg of ovalbumin adsorbed to aluminum hydroxide on protocol days 2, 9, and 16. Subsequently, mice were given 50 μL of saline solution containing 25 μg of ovalbumin intranasally, on a daily basis, from protocol days 23 through 27. A group of ovalbumin-sensitized saline-challenged mice serves as controls for systemic sensitization and respiratory challenges with ovalbumin. Prior to intranasal administrations, mice were sedated with halothane vapor.
To examine the effects of duration of β-adrenergic ligand therapy on the phenotype of the murine model of asthma, the experimental drugs were administered either acutely or chronically to different groups of asthmatic mice.
Asthmatic mice on acute therapy were given a single intravenous bolus infusion of either β-adrenergic drug or normal saline on protocol day 28, 15 minutes before airway responsiveness to methacholine was determined. […] Asthmatic mice on chronic therapy were treated with the β-adrenergic drug during protocol days 1 to 28. […] These concentrations were chosen based on those producing therapeutic effects in mice in previously published studies. The non-asthmatic mice were fed normal chow.
On protocol day 28, mice were anesthetized, tracheotomized, and connected to a computer-controlled small animal ventilator (Flexivent, Scientific Respiratory Equipment, Inc., Montreal, Canada). Airway resistance (Raw) was measured using the forced oscillation technique. The cellular composition of bronchoalveolar lavage fluid (BALF) was also determined.
To induce airway constriction, a solution containing 150 μg/mL of acetyl-α-methylcholine chloride (methacholine) (Sigma Chemical, St. Louis, Mo.) was infused intravenously at constant rates using a syringe infusion pump (Raze Scientific Instruments, Stanford, Conn.). […] Each methacholine dose was administered for 3 to 5 minutes, during which data were sampled at 1-minute intervals and then averaged.
The complex input impedance of the respiratory system was computed and the value of the real part of respiratory system impedance at 19.75 Hz was taken to reflect the magnitude of airway resistance (Raw). To examine the degree of airway responsiveness of each animal, the values for Raw as a function of methacholine doses were plotted. The largest value for Raw achieved in response to methacholine stimulation was referred to as Rawpeak. For mice that achieved a plateau in the methacholine dose-Raw response curve, the ED50 was calculated by linear interpolation using the GraphPad Prism4 (GraphPad Software, Inc.). […] The Bonferroni test was used to examine the statistical differences between experimental groups. The effects of acute drug treatments on baseline respiratory system mechanics were assessed using a two-tailed paired t-test. A value of P<0.05 was considered significant.
For these experiments, salbutamol was used for chronic administration at 0.5 mg/kg/day with a minipump and for acute administration at 0.15 mg/kg by i.v. bolus 15 minutes prior to challenge. Alprenolol was used at a high dose of 7200 ppm in chow or at a low dose of 720 ppm in chow. Carvedilol was used at a high dose of 2400 ppm in chow or at a low dose of 720 ppm in chow.

The target of data set [2] is β2-adrenergic receptor (Mus musculus, UniProt P18762). The experiment in a line: β-adrenergic receptor density in lung membranes of treated asthmatic mice by ICYP radioligand binding. Format: in vivo. The settings on record: for Bmax (β-adrenergic receptor density): 15 Minutes drug treatment. The procedure:
(§1) β2-adrenergic receptor numbers were measured in asthmatic mice as follows. […] Mice were sacrificed and lung membranes were isolated as follows. Frozen lung tissue was homogenized in an ice-cold buffer containing 0.32 M sucrose and 25 mM Tris (pH 7.4) using a polytron (Pro 200, Pro Scientific, Inc.). The homogenate was centrifuged at 1000×g for 10 min at 4° C. The resulting supernatant was centrifuged at 40,000×g for 20 min at 4° C. The pellet was suspended in an ice-cold 25 mM Tris-HCl buffer (pH 7.4) and centrifuged at 40,000×g for 20 min at 4° C. The final pellet was suspended in 200 μL of 25 mM Tris-HCl (pH 7.4); membrane protein concentration was determined by BCA protein assay kit. […] The incubation was done at 37° C. for 2 h and terminated by rapid vacuum filtration through glass fiber filters. The filters were washed three times with 250 μL of cold wash buffer (25 mM Tris-HCl, pH 7.4) and the radioactivity determined in a counter. […] Receptor densities are expressed as femtomoles of sites per milligram of protein. Bmax is determined by nonlinear regression of the saturation binding curves.

Data set [3] relates to β2-adrenergic receptor. The description is as above. The data set is classed as in vivo. The settings on record: 2 days of administration. The procedure:
as §1

Data set [4] deals with tracheas from the mice. The note with it: asthmatic mice chronically treated; WO 02/29534; cited from earlier work.
For data set [5], the system named is patients with CHF. The settings on record: cited from earlier work.
Data set [6] relates to asthmatic mice. The data set is described as follows: Combination therapy carvedilol and salbutamol on airway hyperresponsiveness. The data set is classed as in vivo, Balb/cJ mice. The settings on record: 28 days carvedilol 2400 ppm in chow, alone or with salbutamol chronic (0.5 mg/kg/day) or acute ([…]); highest dose of methacholine. The procedure: Mice (Balb/cJ) aged 6 weeks were housed under specific pathogen-free conditions and fed a chicken ovalbumin-free diet. Mice were systemically sensitized with ovalbumin adsorbed to aluminum hydroxide. Mice were treated as follows: CAR/SAL 28D=for 28 days mice (n=6-12) were administered carvedilol (2400 ppm in animal chow) and salbutamol (subcutaneous delivery of 0.5 mg/kg/day in an Alzet #2400 osmotic minipump); NTX S/C=mice (n=6-12) no drug treatment for 28 days; CTRL=mice (n=6-12) no drug treatment for 28 days, not subsequently challenged; CARHD 28D=for 28 days mice (n=6-12) were administered carvedilol only (2400 ppm in animal chow); CARHD 28D SAL AC=for 28 days mice (n=6-12) were administered carvedilol (2400 ppm in animal chow) and 15 minutes prior to measuring airway hyperresponsiveness, salbutamol was administered at a dose of […].
To measure airway hyperresponsiveness after 28 days, all mice except the CTRL (control) mice were challenged with ovalbumin and then all mice were anesthetized, tracheotomized, and connected to a Flexivent small animal ventilator to measure airway resistance (Raw) by the forced oscillation technique. To induce airway constriction, a solution containing 150 μg/mL of methacholine was infused using a syringe infusion pump. The methacholine infusion was started at 0.008 mL/min and its rate was doubled stepwise up to a maximum […]. […]

The conditions of data set [7]: acute administration; cited from earlier work.
In data set [8] the test system is β-adrenergic receptor. The note with it: U.S. Pat. No. 5,116,867; cited from earlier work.
The conditions of data set [9]: cited from earlier work.
Data set [10] has as its system sensitized and allergen-challenged mice. The experiment in a line: Acute nadolol with aminophylline, methacholine-induced bronchoconstriction. The data set is classed as in vivo. The settings on record: aminophylline 100 mg/kg i.p. during methacholine; untreated and nadolol-treated mice. The procedure: Mice were sensitized to the allergen ovalbumin as described in Example 1. […] At time point 1 (time=−10 min) baseline airway resistance of the mice was determined. At time point 2 (time=−5 min) methacholine was infused into mice to reach their EC70.

In data set [11] the test system is asthmatic mice. The experiment in a line: Airway resistance (Raw) response to methacholine provocation in murine model of asthma (forced oscillation). The note with it: 7 days, metoprolol 20 mg/kg 3× daily subcutaneous, timolol 20 mg/kg in chow. Format: in vivo, Balb/cJ mice.
For data set [12] the following is noted: large trial; cited from earlier work.
The mark [13] stands for this setting: asthmatic mice, chronic: 28 days (chow; salbutamol by osmotic minipump).
The mark [14] stands for this setting: lung membranes of asthmatic mice, mean±SEM.
The mark [15] stands for this setting: 28 Days drug treatment, lung membranes of asthmatic mice, mean±SEM.

“Also recorded” adds a separate entry of the source.

Sequence of β2-adrenergic receptor (Mus musculus, UniProt P18762) (P18762 whole entry): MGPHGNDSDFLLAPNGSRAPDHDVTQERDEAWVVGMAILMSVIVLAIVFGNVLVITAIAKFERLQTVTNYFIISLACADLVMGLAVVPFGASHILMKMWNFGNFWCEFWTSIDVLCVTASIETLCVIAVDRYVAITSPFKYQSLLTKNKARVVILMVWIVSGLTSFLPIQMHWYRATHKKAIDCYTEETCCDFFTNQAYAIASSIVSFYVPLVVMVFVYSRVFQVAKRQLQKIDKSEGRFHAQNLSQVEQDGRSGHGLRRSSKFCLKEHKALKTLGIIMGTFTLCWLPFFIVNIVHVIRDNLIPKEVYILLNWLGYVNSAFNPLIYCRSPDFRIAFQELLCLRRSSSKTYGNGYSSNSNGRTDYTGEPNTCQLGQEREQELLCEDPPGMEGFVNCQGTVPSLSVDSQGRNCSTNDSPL

Regarding `C=CCc1ccccc1OCC(O)CNC(C)C` (stereo not shown) [Alprenolol, alprenolol], in data set [1] (setting [13]), the “airway responsiveness to methacholine provocation (airway resistance, Raw)” value (“airway responsiveness” for short) was “does not reduce airway hyperresponsiveness compared to untreated asthmatic mice; also recorded: provides no benefit upon chronic administration”. Further, in data set [2] (setting [14]), the “Bmax (β-adrenergic receptor density)” value was 299.5 ± 12.19 femtomoles of sites per milligram of protein. Also, in [2] (setting [15]), the “βmax (β-adrenergic receptor density)” value is given as 179.2 ± 53.05 femtomoles of sites per milligram of protein. Further, the “Increased β2AR density” value in data set [3] is reported as “no”. Further, in [4], the “effectiveness on contraction of excised tracheas in response to methacholine (rank)” value was “most effective compound”.
With `CC(C)(Cc1c[nH]c2ccccc12)NCC(O)COc1ccccc1C#N` (stereo not shown) [Bucindolol, bucindolol], the “clinical benefit in congestive heart failure” value (“clinical benefit” below) in data set [5] is on record as “failed to demonstrate any benefit over placebo”.
As to `COc1ccccc1OCCNCC(O)COc1cccc2[nH]c3ccccc3c12` (stereo not shown) [Carvedilol, carvedilol], the “sensitivity of the responsiveness to methacholine” value in [1] (asthmatic mice, chronic administration) is “shifts the sensitivity of the responsiveness to methacholine to lower concentrations”. Further, the “airway responsiveness” value in data set [1] (setting [13]) is listed as “does reduce airway hyperresponsiveness; also recorded: reduced the responsiveness of asthmatic mice to methacholine provocation”. For the same compound, the “protection from airway hyperresponsiveness” value in data set [1] (chronic administration, high and low dose in chow (Example 6)) is on record as “providing protection from airway hyperresponsiveness”. The “Bmax (β-adrenergic receptor density)” value in data set [2] (setting [14]) is listed as 86.3 ± 19.42 femtomoles of sites per milligram of protein. In [2] (setting [15]), the “βmax (β-adrenergic receptor density)” value is given as 904.1 ± 43.46 femtomoles of sites per milligram of protein. The “Increased β2AR density” value is “showed an increase in receptor density” in data set [2] (28 days of administration) and “no” in data set [3]. Moreover, in data set [2] (chronic administration, versus untreated methacholine-challenged asthmatic mice), the “increase of the level of β2-adrenergic receptors over the non-treated mice” value is reported as “over 10 fold”. In data set [6], the “bronchoconstriction / airway hyperresponsiveness to methacholine” value was “higher bronchoconstriction than these treatments but less than the non-drug treated sensitized and challenged (NTX S/C) mice”. Moreover, the “clinical benefit” value in data set [5] was “significant mortality reduction”.
As for `CC(C)NC[C@@H](O)COc1cccc2ccccc12` [D-propranolol], the “antigen-induced bronchoconstriction and airway hyperresponsiveness” value in [7] was “beneficial in inhibiting antigen-induced bronchoconstriction and reducing airway hyperresponsiveness”. For the same compound, the “potency in inhibiting the β-adrenergic receptor relative to the L-form” value in [8] is 1/100.
Consider `Cc1ccc(OCC(O)C(C)NC(C)C)c2c1CCC2` (stereo not shown) [ICI-118,551], for which the “effectiveness on contraction of excised tracheas in response to methacholine (rank)” value in data set [4] is “then ICI-118,551”.
For `CC(C)NC[C@H](O)COc1cccc2ccccc12` [L-form, propranolol], the specific lung resistance entry in data set [7] is “increased specific lung resistance”.
Take `CC(C)(C)NCC(O)c1ccc(O)c(CO)c1` (stereo not shown) [Salbutamol, salbutamol]: the “airway responsiveness” value in [1] (asthmatic mice, acute: single intravenous bolus 15 minutes before methacholine) was “reduced the level of airway responsiveness to methacholine provocation and the level of airway resistance”; in data set [1] (setting [13]), “no protection was observed”. For the same compound, the “Bmax (β-adrenergic receptor density)” value in [2] (setting [14]) is recorded as 256.5 ± 29.24 femtomoles of sites per milligram of protein. Further, the “βmax (β-adrenergic receptor density)” value in [2] (setting [15]) is recorded as 97.0 ± 23.02 femtomoles of sites per milligram of protein. Moreover, the Kd in data set [2] (28 Days drug treatment, lung membranes of asthmatic mice, mean±SEM, read-out: KD (apparent, of radioligand ICYP)) was determined as 225 pM. Also, in [3], the “Increased β2AR density” value is reported as “no”. Moreover, the “bioavailability of inhaled drug” value in data set [9] (10 patients with cystic fibrosis versus healthy adults) was “greater than that in healthy adults”.
In the case of `Cn1c(=O)c2[nH]cnc2n(C)c1=O` [aminophylline], the “airway resistance after aminophylline administration” value in data set [10] is “significant and sustained drop in airway resistance; also recorded: can alleviate the acute effects on airway hyperresponsiveness of nadolol administration”.
For `CCCC1O[C@@H]2C[C@H]3[C@@H]4CCC5=CC(=O)C=C[C@]5(C)[C@H]4[C@@H](O)C[C@]3(C)[C@]2(C(=O)CO)O1` (stereo partly shown) [budesonide], the “plasma clearance of the 2 enantiomers per kilogram of bodyweight, children versus adults” value in [9] (6 children with asthma versus 11 healthy adults) is on record as “about 50%”.
For `COCCc1ccc(OCC(O)CNC(C)C)cc1` (stereo not shown) [metoprolol], in [11], the “airway hyperresponsiveness (Raw) to methacholine” value is “effective in reducing airway hyperresponsiveness in asthmatic mice”. In addition, the “clinical benefit” value in data set [5] is reported as “significant mortality reduction”.
In the case of `OCc1cc(C(O)CNCCCCCCOCCCCc2ccccc2)ccc1O` (stereo not shown) [salmeterol], the death rates entry in data set [12] was “stopped due to increased death rates”.
For `CC(C)(C)NCC(O)c1cc(O)cc(O)c1` (stereo not shown) [terbutaline], the “rate of absorption through the lung” value in [9] (healthy smokers versus healthy nonsmokers) is listed as “more rapidly in healthy smokers than in healthy nonsmokers”.
As to `CC(C)(C)NC[C@H](O)COc1nsnc1N1CCOCC1` [timolol], the “airway hyperresponsiveness (Raw) to methacholine” value in data set [11] is “effective in reducing airway hyperresponsiveness in asthmatic mice”.
